Results: patent publication EP2292237A1, “Sigma ligands for the prevention or treatment of pain induced by chemotherapy” (Laboratorios del. Dr. Esteve, S.A., priority 2009, dated 2011)
“Also recorded” adds a separate entry of the source. Like-named read-outs stand apart in the source and are kept apart here.

Key:
CD-1 mice [1] = experiment: Acetone test: development of paclitaxel-induced cold allodynia, co-administration with paclitaxel or paclitaxel vehicle; assay type: in vivo; conditions: for duration of acetone-induced paw licking/biting: 64 mg/kg s.c. 30 min before each i.p. paclitaxel dose (2 mg/kg), versus paclitaxel + saline; for duration of acetone-induced paw licking/biting / days with statistically significant differences in duration of acetone-induced licking/biting versus paclitaxel + saline: days 1 to 5; for days with statistically significant differences in duration of acetone-induced licking/biting versus paclitaxel + saline: 64 mg/kg s.c. 30 min before each i.p. paclitaxel dose, days after the first dose of paclitaxel; for response of the animals to acetone (duration of hind paw licking/biting): co-administration days 1 to 5 of paclitaxel-vehicle i.p. and compound 64 mg/kg s.c., versus paclitaxel-vehicle + saline, hydrochloride, 64 mg/kg; for development of cold allodynia induced by paclitaxel: co-administration of paclitaxel (2 mg/kg, i.p.) and compound (64 mg/kg, s.c.)
CD-1 mice [2] = experiment: Acetone test: expression of paclitaxel-induced cold allodynia, single s.c. injection on day 10; assay type: in vivo; conditions: for expression of cold allodynia induced by paclitaxel: acute treatment 32-64 mg/kg s.c. on day 10 in mice pretreated with paclitaxel; for response to acetone of control (paclitaxel-vehicle treated) animals: acute treatment 32 or 64 mg/kg s.c. on day 10; for duration of hind paw licking/biting (acetone test) versus saline: single s.c. injection 64 mg/kg in mice pretreated with paclitaxel-vehicle (Figs. 7 and 8)
Description: Experiments were performed in CD-1 mice (Charles River, U.S.A.) with at least n = 10/experimental group. Mice weighing 25-30 g were used. The animals were housed in colony cages with free access to food and water prior to the experiments. They were maintained in temperature- and light-controlled rooms (22 ± 1 °C, lights on at 08.00 h and off at 20.00 h, air replacement every 20 min). Testing took place during the light phase (from 9.00 h to 15.00 h).
Therefore, the cumulative dose was 10 mg/kg per mouse.
Compounds 1a and 1b were dissolved in normal saline just before administration and applied at doses of 32 or 64 mg/kg subcutaneously.
The response of the animals to the different nociceptive stimuli was tested subsequently during 2-4 weeks, depending on the test (see below), without any additional treatment. Each animal was tested only in one nociceptive model. […] Each animal received only one dose of compound 1 a or 1b and was tested in only one nociceptive model.
Procedure for assessment of cold allodynia. Cold allodynia was tested as previously described by Smith et al. in Life Sci., 2004, 74(21), 2593-604, by gently touching the plantar skin of the hind paws with an acetone bubble formed with a syringe connected to a thin polyethylene tube. The mice were housed and habituated for 30 min in transparent plastic boxes (7 x 7 x 13 cm) with a floor made of wire mesh. After the adaptation period, acetone was applied alternately three times to each paw at intervals of 30 s, and the duration and frequency of licking or biting were recorded. A small mirror was placed behind the chambers to allow clear observation of the paws. The time spent licking or biting the paw was recorded by a stopwatch and represented as the cumulative time of licking/biting in the six measurements. Since licking persisting more than 10 s in the experiments was very unusual, a cut-off time of 10 s was used for each trial. […]
On that day, duration of hind paw licking/biting was recorded immediately before (time 0) and at several times (60, 120 and 180 min) after the injection of compound 1 a, compound 1 b or saline.
On that day, duration of hind paw licking/biting was recorded immediately before (time 0) and at several times (60, 120 and 180 min) after the injection of compound 1a, compound 1b or saline.

patients = conditions: cited from earlier work

With `Cl.c1ccc(-n2ncc3c2CCC[C@H]3CCN2CCOCC2)cc1` [compound 1a, (S)-4,5,6,7-tetrahydro-4-(2-(morpholin-4-yl)ethyl)-1-phenyl-1H-indazole hydrochloride] the “duration of acetone-induced paw licking/biting” value (CD-1 mice [1]) was “reduced”, the “days with statistically significant differences in duration of acetone-induced licking/biting versus paclitaxel + saline” value (CD-1 mice [1]) was “from day 7 to day 21” and the “response of the animals to acetone (duration of hind paw licking/biting)” value (CD-1 mice [1]) was “did not significantly modify; also recorded: No statistically significant differences”. The “development of cold allodynia induced by paclitaxel” value (CD-1 mice [1]) was “inhibited”, the “times at which the effect was statistically significant in comparison with the saline-treated group” value (CD-1 mice [2]; acute treatment 32-64 mg/kg s.c. on day 10, time after administration of the drug) was “at all times evaluated from 60 to 180 min” and the “expression of cold allodynia induced by paclitaxel” value (CD-1 mice [2]; hydrochloride) was “dose-dependently inhibited”. The “response to acetone of control (paclitaxel-vehicle treated) animals” value (CD-1 mice [2]) was “did not affect” and the “duration of hind paw licking/biting (acetone test) versus saline” value (CD-1 mice [2]) was “No statistically significant differences”.
In the case of `Cl.c1ccc(-n2ncc3c2CCC[C@@H]3CCN2CCOCC2)cc1` [compound 1b, (R)-4,5,6,7-tetrahydro-4-(2-(morpholin-4-yl)ethyl)-1-phenyl-1H-indazole hydrochloride], the “duration of acetone-induced paw licking/biting” value (CD-1 mice [1]) is reported as “reduced”, the “days with statistically significant differences in duration of acetone-induced licking/biting versus paclitaxel + saline” value (CD-1 mice [1]) is reported as “at days 7, 14 and 21” and the “response of the animals to acetone (duration of hind paw licking/biting)” value (CD-1 mice [1]) is reported as “did not significantly modify; also recorded: No statistically significant differences”. For the same molecule, the “development of cold allodynia induced by paclitaxel” value (CD-1 mice [1]) was “inhibited”, the “expression of cold allodynia induced by paclitaxel” value (CD-1 mice [2]) was “inhibited” and the “response to acetone of control (paclitaxel-vehicle treated) animals” value (CD-1 mice [2]) was “did not affect”. The “duration of hind paw licking/biting (acetone test) versus saline” value (CD-1 mice [2]) was “No statistically significant differences”.
With `O=C(O)C(=O)O.c1ccc(-n2ncc3c2CCCC3CCN2CCOCC2)cc1` (stereo not shown) [compound 2, 4,5,6,7-tetrahydro-4-(2-(morpholin-4-yl)ethyl)-1-phenyl-1H-indazole oxalate] the “duration of acetone-induced licking/biting” value (CD-1 mice [2]; acute injection 32-64 mg/kg s.c., 10 days after the first dose of paclitaxel) was “dose-dependently reduced”.
With `CC(=O)O[C@H]1C(=O)[C@@]2(C)[C@H]([C@H](OC(=O)c3ccccc3)[C@]3(O)C[C@H](OC(=O)[C@H](O)[C@@H](NC(=O)c4ccccc4)c4ccccc4)C(C)=C1C3(C)C)[C@]1(OC(C)=O)CO[C@@H]1C[C@@H]2O` [paclitaxel, Paclitaxel, reference compound] the “duration of paw licking/biting in the acetone test” value (CD-1 mice [1]; paclitaxel (i.p., 2 mg/kg) and saline (s.c.) co-administered days 1 to 5, began on day 7, maximum on day 14) was “significant increase”, the “control animals treated with paclitaxel that did not show cold allodynia” value (CD-1 mice [2]; 'non-responders': less than 2 s licking/biting on days 7 and 10 after paclitaxel) was “Around 33%” and the “cold allodynia (increase in the duration of acetone-induced paw licking/biting)” value (CD-1 mice [2]; paclitaxel i.p. once daily days 1 to 5, evaluated 10 days after the first dose) was “developed cold allodynia”. For the same molecule, the “progressing to dose-limiting neurotoxicity in % of patients” value (patients; paclitaxel dose 135 mg/m^2) was 0%, the “progressing to dose-limiting neurotoxicity in % of patients” value (patients; paclitaxel dose 175 mg/m^2) was 21% and the “progressing to dose-limiting neurotoxicity in % of patients” value (patients; paclitaxel dose 250-300 mg/m^2) was 71%.
